From BindingDB's records for doi:10.7270/Q2ZP44JJ (Burnham Center For Chemical Genomics, 2009)

Target: T1, Tyrosine-protein phosphatase non-receptor type 22 (Homo sapiens, UniProt Q9Y2R2)
T1 sequence (Q9Y2R2 whole entry): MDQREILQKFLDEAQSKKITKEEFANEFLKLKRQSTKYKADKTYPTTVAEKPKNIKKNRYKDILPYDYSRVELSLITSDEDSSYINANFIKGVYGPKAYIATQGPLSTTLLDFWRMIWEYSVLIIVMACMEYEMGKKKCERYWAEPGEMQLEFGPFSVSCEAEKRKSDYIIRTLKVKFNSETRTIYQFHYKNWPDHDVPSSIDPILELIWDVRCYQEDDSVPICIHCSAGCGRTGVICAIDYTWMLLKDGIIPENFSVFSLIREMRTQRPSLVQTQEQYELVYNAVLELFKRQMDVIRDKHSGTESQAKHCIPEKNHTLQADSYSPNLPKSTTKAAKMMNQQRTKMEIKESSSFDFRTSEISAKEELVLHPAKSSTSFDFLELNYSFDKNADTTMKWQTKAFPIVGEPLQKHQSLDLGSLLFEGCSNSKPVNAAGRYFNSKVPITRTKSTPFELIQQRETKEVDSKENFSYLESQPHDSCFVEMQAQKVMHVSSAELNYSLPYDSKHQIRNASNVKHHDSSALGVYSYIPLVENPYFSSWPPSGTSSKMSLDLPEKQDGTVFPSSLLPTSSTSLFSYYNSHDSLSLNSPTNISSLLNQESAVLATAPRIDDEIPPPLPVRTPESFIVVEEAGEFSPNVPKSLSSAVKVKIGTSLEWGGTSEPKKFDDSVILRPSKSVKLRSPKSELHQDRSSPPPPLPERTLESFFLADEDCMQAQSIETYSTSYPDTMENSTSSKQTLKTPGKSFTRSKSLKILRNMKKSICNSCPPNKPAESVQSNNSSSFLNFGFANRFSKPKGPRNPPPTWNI
Assay: PubChem AID 2140

## CCOc1ccc2nc(NC(=O)CSc3cc(O)c4c(C)c(C)sc4n3)sc2c1 [2-[(2,3-dimethyl-4-oxidanylidene-5H-thieno[2,3-b]pyridin-6-yl)sulfanyl]-N-(6-ethoxy-1,3-benzothiazol-2-yl)ethanamide]
  IC50: 43.4 µM
